Assay results: patent US20200306211A1, “METHOD FOR ADAPTING DOSES OF COMBINATION THERAPIES” (Pharnext, priority 2015, published 2020)

Test system: young and elderly healthy volunteers
Experiment: Cognitive Event-Related Potentials (ERP) latency composite score, correlated with plasma drug concentrations
Assay type: in vivo, human
Conditions: plasma concentration at 1.5 h in subjects with best ERP latencies composite score (ERP at Day 10, 6 h post-dose)
Protocol: The study below was a double blind placebo control study performed in accordance with the European Medicines Agency ICH-E6 (R1) guideline recommendations and the French law n° 2004-806, Aug. 9, 2004 relative to public health law. The study was a preliminary study whose one of the objectives was to assess baclofen and acamprosate combinatorial treatment to improve cognition in young and elderly healthy volunteers. The study was conducted on a cohort of 24 human subjects.
Briefly, the duration of treatment was of 10 days.
Electrophysiological measurement of Cognitive Event-Related Potentials (ERPs) were recorded to assess the cognitive performances of the subjects. ERPs are the electrophysiological response to a stimulus and could serve as a surrogate biological marker of cognitive performances. Here, the cognitive task required paying attention and to count odd stimuli according to a specific protocol. Potential is recorded during the test. An ERP latency composite score is determined from the different derivations. […]
A correlation was searched between each of the different endpoints (i.e. the cognitive tests, or the ERP latency composite score) and drug concentrations determined at each sampling time.
Pearson's correlation coefficient was determined for each of the endpoints and different plasmatic concentrations measured as a function of time.

For `CC(=O)NCCCS(=O)(=O)O` [acamprosate], the “Most efficient plasmatic concentration in trial” value was over 2.5 ng/mL.
For `NCC(CC(=O)O)c1ccc(Cl)cc1` (centres unmarked) [baclofen], the “Most efficient plasmatic concentration in trial” value was at least 500 ng/mL.
